Key:
β-catenin = molecular target: T1, β-catenin (Homo sapiens, UniProt P35222); assay: SRP test (Biacore T200), binding to ligand β-catenin; settings: Biacore T200, CM5 chip with β-catenin, HEPES pH 7.4, 0.1% DMSO, 25 °C
T1 sequence (P35222 1-781): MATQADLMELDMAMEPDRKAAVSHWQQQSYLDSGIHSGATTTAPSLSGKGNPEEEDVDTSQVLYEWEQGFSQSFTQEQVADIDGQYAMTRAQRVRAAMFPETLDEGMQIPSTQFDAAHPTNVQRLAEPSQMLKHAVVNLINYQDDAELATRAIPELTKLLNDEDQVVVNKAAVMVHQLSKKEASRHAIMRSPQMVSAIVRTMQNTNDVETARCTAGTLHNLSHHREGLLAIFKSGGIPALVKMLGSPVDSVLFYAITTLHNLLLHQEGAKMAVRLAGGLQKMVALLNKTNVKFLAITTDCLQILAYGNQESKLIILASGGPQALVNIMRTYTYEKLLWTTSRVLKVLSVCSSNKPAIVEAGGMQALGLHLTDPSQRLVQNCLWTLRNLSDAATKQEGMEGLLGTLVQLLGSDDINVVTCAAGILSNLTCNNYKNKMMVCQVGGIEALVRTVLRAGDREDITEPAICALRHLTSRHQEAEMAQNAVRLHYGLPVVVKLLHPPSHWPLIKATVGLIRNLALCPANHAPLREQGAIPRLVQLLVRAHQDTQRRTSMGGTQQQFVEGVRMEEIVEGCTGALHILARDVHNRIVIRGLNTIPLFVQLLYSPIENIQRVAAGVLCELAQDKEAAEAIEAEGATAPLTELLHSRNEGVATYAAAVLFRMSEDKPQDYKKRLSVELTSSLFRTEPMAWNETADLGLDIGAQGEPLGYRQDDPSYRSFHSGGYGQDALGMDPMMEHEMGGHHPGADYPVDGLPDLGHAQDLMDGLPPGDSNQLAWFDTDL
Method: • 1. Experimental settings • 1. The analyte is in powder form. • 2. The temperature is 25 °C • 3. The analysis equipment adopts Biacore T200 instrument. • 2. Sample dilution • 1. Ligand β-catenin diluted with HEPES (pH 7.4), 0.5 mg/mL • 2. The analyte was dissolved in DMSO and diluted with 0.1% DMSO HEPES (pH 7.4). • 3. Experimental process • 1. Operate and start according to the standard of Biacore T200 instrument. • 2. Prepare buffer HEPES (pH 7.4) and 500 ml of deionized water for washing syringes (filtered by […] membrane). • 3. Start installing the chip and install the Cm5 chip according to the standard process. • 4. Prepare to start the formal experiment, the buffer will flush the flow path system inside the entire system at a high flow rate. • 5. Choose the appropriate program according to the sample size. • 6. Start capturing the chip and prepare a sufficient volume of ligands β-catenin, EDC/NHS, and blocking solution. The conjugation procedure was started with a conjugation time of 7 min, a flow rate of […], and a final ligand conjugation of approximately 16000RU. • 7. After the conjugation is completed, the sample detection is started, and the analyte binding time is set to 120 s. • Flow rate of 30 μL/min; The dissociation time was 200 s and the flow rate was 30 μL/min. Regeneration time 30 s, • The flow rate is 30 μL/min. • 8. […]

SW480 cells = assay: CCK8 assay, SW480 cells; type: cell-based; settings: CCK-8, SW480 cells, 24 hours incubation at 37 °C, DMEM (2% FBS), OD450-OD600
Method: • 1. SW480 Cell plate • Cells digested, counted, and laid a 96-well plate (flat-bottomed transparent) with 10,000 cells/100 ul DMEM (10% FBS) per well; • 2. Observe the cell status on the next day, and start adding medicine after the cells are intact; • 3. Dilute the compound with DMEM (2% FBS) and dilute it in a gradient at concentrations of 20 μM, 10 μM, 5 μM, 2.5 μM, 1.25 μM, 0.625 μM, 0.3125 μM, 0.15625 μM, 0 μM (equal volume DMSO); • 4. Add 100 μl of the above compounds of different concentrations to each well, and make 2 compound wells for each concentration gradient; Leave 3 blank wells (DMEM 2% FBS culture medium only, no cells); • 5. Incubate at 37 °C for 24 hours; • 6. […] Measure absorbance at 450 nm and absorbance at 600 nm (exclude interference from the reagent base color and the absorbance value of the plate itself); • 9. The final absorbance value is OD450 nm-OD600 nm, and the rejection rate is calculated.
Suppression Rate=[(Ac−As)/(Ac−Ab)]×100% • As: absorbance of the experimental wells (medium containing cells, CCK-8, drug to be tested); • Ac: absorbance of the control wells (medium containing cells, CCK-8, no drug to be tested); • Ab: Absorbance of blank wells (medium without cells and drug to be tested, CCK-8).

Structure (SMILES)	Kd (β-catenin)	other results
CC(C)c1ccc(-c2cccc(S(=O)(=O)N3CCCC(c4cccc(OC(C)(C)C(=O)NCC(=O)N5CCC[C@H]5CN)c4)C3)c2)cc1 (stereo partly shown) [Compound 115-010]	284 µM	–
CC(C)c1ccc(-c2cccc(S(=O)(=O)N3CCCC(c4cccc(OC(C)(C)C(=O)NCC(=O)N5CC[C@@H](CN)C5)c4)C3)c2)cc1 (stereo partly shown) [Compound 115-012]	760 µM	–
CC(C)c1ccc(-c2cccc(S(=O)(=O)N3CCCC(c4cccc(OC(C)(C)C(=O)NCC(=O)N5CCC[C@H]5CCN)c4)C3)c2)cc1 (stereo partly drawn) [Compound 115-014, N-(2-((S)-2-(2-aminoethyl)pyrrolidin-1-yl)-2-oxyethyl)-2-(3-(1-((4′-isopropyl-[1,1′-Biphenyl]-3-yl)sulfonylpiperidine-3-yl)phenoxy)-2-methylpropionamide)]	–	IC50 (SW480 cells; Homo sapiens, read-out: SW^10 IC50): 52.9 µM
CC(C)(Oc1cccc(C2CCCN(C(=O)NCc3ccc(-c4cn[nH]c4)cc3)C2)c1)C(=O)NCC(=O)N1CCCC1CN (stereo not shown) [Compound 115-020]	–	SW^10 IC50 (SW480 cells): Inactive
